# Measurements reported in the supplement of paper PMC4862054.
# Legend:
# Details in all cases: incubation time: 72 h
# Hs578T = assay: normalised viability (% of control), CellTiter-Blue; higher = more viable cells (about 100 = DMSO control)
# Method in brief: (§1)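 Compound dissolved in 5 µl medium was pre-loaded into 384-well plates, and breast cancer cell lines in 20 µl suspension were seeded on top and incubated 72 h. After adding 2.5 µl CellTiter-Blue reagent for 2 h at 37 °C, fluorescence was read at 560/590 nm. Plates were normalised to vehicle (100) and a positive kill control (0), with Z'-factor quality control. Each value is normalised viability at a single listed concentration from the series.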
# MDA-MB-468 [1] = assay: as above
# Method in brief: as §1
# MDA-MB-436 [2] = assay: as above
# Method in brief: as §1
# HDQ-P1 [3] = assay: as above
# Method in brief: as §1
# HCC1937 = assay: as above
# Method in brief: as §1
# SK-BR-3 = assay: as above
# Method in brief: as §1
# HCC1599 = assay: as above
# Method in brief: as §1
# HCC1143 = assay: as above
# Method in brief: as §1
# MDA-MB-231 = assay: as above
# Method in brief: as §1
# CAL-51 [4] = assay: as above
# Method in brief: as §1
# BT-474 = assay: as above
# Method in brief: as §1
# CAL-120 = assay: as above
# Method in brief: as §1
# MDA-MB-453 [5] = assay: normalised viability (% of control), CellTiter-Blue; higher = more viable cells (about 100 = DMSO control)
# Method: (§2)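 DSRT, CellTiter-Blue viability, 72 h incubation. Signal is normalised to DMSO and benzethonium chloride controls. Value is the normalised response at dose 7.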
# HDQ-P1 [6] = assay: as above; remark: listed apart in the source
# Method: as §2
# CAL-85-1 = assay: as above
# Method: as §2
# CAL-148 [7] = assay: as above
# Method: as §2
# CAL-51 [8] = assay: as above; remark: listed apart in the source
# Method: as §2
# DU-4475 = assay: as above
# Method: as §2
# MDA-MB-468 [9] = assay: normalised response (% of control), CellTiter-Glo; higher = more viable cells (100 = DMSO, 0 = benzethonium chloride kill control)
# Method in brief: (§3)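 Values are normalised signals, each belonging to one concentration of the series. Breast cancer cells (20 µl suspension) were seeded into 384-well plates with compound at 5 concentrations in 10-fold steps over a compound-specific 10,000-fold range and incubated 72 h. Readouts were CellTox Green fluorescence (485/520 nm), then CellTiter-Glo luminescence after 10 min at room temperature, with each plate set to 0.1 % DMSO as 100 and a positive kill control as 0.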
# MDA-MB-436 [10] = assay: as above
# Method in brief: as §3
# MDA-MB-453 [11] = assay: as above
# Method in brief: as §3
# MFM-223 = assay: as above
# Method in brief: as §3
# CAL-148 [12] = assay: as above
# Method in brief: as §3
smiles,measurement,setting,value
CS(=O)(=O)c1ccc(C(=O)Nc2ccc(Cl)c(-c3ccccn3)c2)c(Cl)c1 [Vismodegib],normalised viability,Hs578T; 10 nM,106%
same,normalised viability,Hs578T; 1000 nM,108%
same,normalised viability,Hs578T; 10000 nM,93.3%
same,normalised viability,MDA-MB-468 [1]; 10 nM,104%
same,normalised viability,MDA-MB-468 [1]; 1000 nM,103%
same,normalised viability,MDA-MB-468 [1]; 10000 nM,88.7%
same,normalised viability,MDA-MB-436 [2]; 10 nM,90.9%
same,normalised viability,MDA-MB-436 [2]; 1000 nM,23.6%
same,normalised viability,MDA-MB-436 [2]; 10000 nM,76%
same,normalised viability,HDQ-P1 [3]; 3 nM,100%
same,normalised viability,HDQ-P1 [3]; 30 nM,96.5%
same,normalised viability,HDQ-P1 [3]; 100 nM,88.8%
same,normalised viability,HCC1937; 10 nM,57.2%
same,normalised viability,HCC1937; 1000 nM,91.4%
same,normalised viability,HCC1937; 10000 nM,83.9%
same,normalised viability,SK-BR-3; 10 nM,107%
same,normalised viability,SK-BR-3; 1000 nM,105%
same,normalised viability,SK-BR-3; 10000 nM,95.2%
same,normalised viability,HCC1599; 10 nM,112%
same,normalised viability,HCC1599; 1000 nM,97.7%
same,normalised viability,HCC1599; 10000 nM,84.1%
same,normalised viability,HCC1143; 10 nM,93.1%
same,normalised viability,HCC1143; 1000 nM,93.6%
same,normalised viability,HCC1143; 10000 nM,92.9%
same,normalised viability,MDA-MB-231; 10 nM,115%
same,normalised viability,MDA-MB-231; 1000 nM,97.7%
same,normalised viability,MDA-MB-231; 10000 nM,92%
same,normalised viability,CAL-51 [4]; 3 nM,114%
same,normalised viability,CAL-51 [4]; 30 nM,104%
same,normalised viability,CAL-51 [4]; 100 nM,106%
same,normalised viability,BT-474; 10 nM,102%
same,normalised viability,BT-474; 1000 nM,118%
same,normalised viability,BT-474; 10000 nM,77.5%
same,normalised viability,CAL-120; 10 nM,89.7%
same,normalised viability,CAL-120; 1000 nM,90.8%
same,normalised viability,CAL-120; 10000 nM,85.6%
OC[C@H]1O[C@@H](n2cnc3c2N=CNC[C@H]3O)C[C@@H]1O [Pentostatin] (1000 nM),normalised viability,MDA-MB-453 [5],98.2%
same,normalised viability,HDQ-P1 [6],85.4%
same,normalised viability,CAL-85-1,108%
same,normalised viability,CAL-148 [7],123%
same,normalised viability,CAL-51 [8],89.9%
same,normalised viability,DU-4475,102%
same,normalised response,MDA-MB-468 [9],99.4%
same,normalised response,MDA-MB-436 [10],102%
same,normalised response,MDA-MB-453 [11],97.8%
same,normalised response,MFM-223,103%
same,normalised response,CAL-148 [12],94.4%
CN1CC[C@H](c2c(O)cc(O)c3c(=O)cc(-c4ccccc4Cl)oc23)[C@H](O)C1 [Alvocidib] (1000 nM),normalised viability,MDA-MB-453 [5],9.17%
same,normalised viability,HDQ-P1 [6],10.8%
same,normalised viability,CAL-85-1,1.95%
same,normalised viability,CAL-148 [7],10.3%
same,normalised viability,CAL-51 [8],4.57%
same,normalised viability,DU-4475,3.18%
same,normalised response,MDA-MB-468 [9],8.32%
same,normalised response,MDA-MB-436 [10],14.2%
same,normalised response,MDA-MB-453 [11],28%
same,normalised response,MFM-223,14%
same,normalised response,CAL-148 [12],26.1%
CC[C@]1(O)C[C@@H]2CN(CCc3c([nH]c4ccccc34)[C@@](C(=O)OC)(c3cc4c(cc3OC)N(C)[C@H]3[C@@](O)(C(=O)OC)[C@H](OC(C)=O)[C@]5(CC)C=CCN6CC[C@]43[C@@H]65)C2)C1 [Vinblastine] (100 nM),normalised viability,MDA-MB-453 [5],23.8%
same,normalised viability,HDQ-P1 [6],37.6%
same,normalised viability,CAL-85-1,30.2%
same,normalised viability,CAL-148 [7],20.1%
same,normalised viability,CAL-51 [8],23.3%
same,normalised viability,DU-4475,34.8%
same,normalised response,MDA-MB-468 [9],34.7%
same,normalised response,MDA-MB-436 [10],25.3%
same,normalised response,MDA-MB-453 [11],57.5%
same,normalised response,MFM-223,44.1%
same,normalised response,CAL-148 [12],42%
N#CC[C@H](C1CCCC1)n1cc(-c2ncnc3[nH]ccc23)cn1 [Ruxolitinib] (1000 nM),normalised viability,MDA-MB-453 [5],92.4%
same,normalised viability,HDQ-P1 [6],91.1%
same,normalised viability,CAL-85-1,110%
same,normalised viability,CAL-148 [7],101%
same,normalised viability,CAL-51 [8],90%
same,normalised viability,DU-4475,112%
same,normalised response,MDA-MB-468 [9],90.8%
same,normalised response,MDA-MB-436 [10],101%
same,normalised response,MDA-MB-453 [11],84.3%
same,normalised response,MFM-223,91%
same,normalised response,CAL-148 [12],99.9%
Clc1ccc(C(c2ccccc2Cl)C(Cl)Cl)cc1 (stereo not given) [Mitotane],normalised viability,Hs578T; 10 nM,96.6%
same,normalised viability,Hs578T; 1000 nM,86.7%
same,normalised viability,Hs578T; 10000 nM,107%
same,normalised viability,MDA-MB-468 [1]; 10 nM,108%
same,normalised viability,MDA-MB-468 [1]; 1000 nM,102%
same,normalised viability,MDA-MB-468 [1]; 10000 nM,102%
same,normalised viability,MDA-MB-436 [2]; 10 nM,88.9%
same,normalised viability,MDA-MB-436 [2]; 1000 nM,106%
same,normalised viability,MDA-MB-436 [2]; 10000 nM,90.9%
same,normalised viability,HDQ-P1 [3]; 3 nM,117%
same,normalised viability,HDQ-P1 [3]; 30 nM,102%
same,normalised viability,HDQ-P1 [3]; 100 nM,100%
same,normalised viability,HCC1937; 10 nM,79.9%
same,normalised viability,HCC1937; 1000 nM,91.1%
same,normalised viability,HCC1937; 10000 nM,79.4%
same,normalised viability,SK-BR-3; 10 nM,105%
same,normalised viability,SK-BR-3; 1000 nM,104%
same,normalised viability,SK-BR-3; 10000 nM,82.3%
same,normalised viability,HCC1599; 10 nM,97%
same,normalised viability,HCC1599; 1000 nM,88.2%
same,normalised viability,HCC1599; 10000 nM,97.1%
same,normalised viability,HCC1143; 10 nM,82.9%
same,normalised viability,HCC1143; 1000 nM,81.2%
same,normalised viability,HCC1143; 10000 nM,91.4%
same,normalised viability,MDA-MB-231; 10 nM,85.4%
same,normalised viability,MDA-MB-231; 1000 nM,94.8%
same,normalised viability,MDA-MB-231; 10000 nM,119%
same,normalised viability,CAL-51 [4]; 3 nM,117%
same,normalised viability,CAL-51 [4]; 30 nM,106%
same,normalised viability,CAL-51 [4]; 100 nM,107%
same,normalised viability,BT-474; 10 nM,118%
same,normalised viability,BT-474; 1000 nM,108%
same,normalised viability,BT-474; 10000 nM,130%
same,normalised viability,CAL-120; 10 nM,80.8%
same,normalised viability,CAL-120; 1000 nM,87.8%
same,normalised viability,CAL-120; 10000 nM,86%
CN1CCC(COc2cnc(-c3cccc(Cn4nc(-c5cccc(C#N)c5)ccc4=O)c3)nc2)CC1 (1000 nM),normalised viability,MDA-MB-453 [5],90.8%
same,normalised viability,HDQ-P1 [6],95%
same,normalised viability,CAL-85-1,98.6%
same,normalised viability,CAL-148 [7],90.4%
same,normalised viability,CAL-51 [8],99.2%
same,normalised viability,DU-4475,97.2%
Nc1nc(Cl)nc2c1ncn2[C@H]1C[C@H](O)[C@@H](CO)O1 [Cladribine] (100 nM),normalised viability,MDA-MB-453 [5],98.4%
same,normalised viability,HDQ-P1 [6],95.5%
same,normalised viability,CAL-85-1,84.2%
same,normalised viability,CAL-148 [7],96.9%
same,normalised viability,CAL-51 [8],111%
same,normalised viability,DU-4475,81%
same,normalised response,MDA-MB-468 [9],93.8%
same,normalised response,MDA-MB-436 [10],104%
same,normalised response,MDA-MB-453 [11],106%
same,normalised response,MFM-223,101%
same,normalised response,CAL-148 [12],97.8%
CN(C)C/C=C/C(=O)Nc1cc2c(Nc3ccc(F)c(Cl)c3)ncnc2cc1O[C@H]1CCOC1 [Afatinib] (1000 nM),normalised viability,MDA-MB-453 [5],27.5%
same,normalised viability,HDQ-P1 [6],49.8%
same,normalised viability,CAL-85-1,48.6%
same,normalised viability,CAL-148 [7],73.7%
same,normalised viability,CAL-51 [8],99.7%
same,normalised viability,DU-4475,87.7%
Cc1c2oc3c(C)ccc(C(=O)N[C@@H]4C(=O)N[C@H](C(C)C)C(=O)N5CCC[C@H]5C(=O)N(C)CC(=O)N(C)[C@@H](C(C)C)C(=O)O[C@@H]4C)c3nc-2c(C(=O)N[C@@H]2C(=O)N[C@H](C(C)C)C(=O)N3CCC[C@H]3C(=O)N(C)CC(=O)N(C)[C@@H](C(C)C)C(=O)O[C@@H]2C)c(N)c1=O [Dactinomycin] (100 nM),normalised viability,MDA-MB-453 [5],4.93%
same,normalised viability,HDQ-P1 [6],12.9%
same,normalised viability,CAL-85-1,3.46%
same,normalised viability,CAL-148 [7],7.49%
same,normalised viability,CAL-51 [8],2.49%
same,normalised viability,DU-4475,0.64%
same,normalised response,MDA-MB-468 [9],3.22%
same,normalised response,MDA-MB-436 [10],17%
same,normalised response,MDA-MB-453 [11],6.8%
same,normalised response,MFM-223,26.6%
same,normalised response,CAL-148 [12],2.05%
